# Laboratory results reported in patent US11415579B2, “Assay for measuring a rate of reaction between a target and a ligand candidate” (Imperial College Innovations Ltd., priority 2016, dated 2022).
# Key:
# [1] = Kinetic thiol consumption assay with model thiol glutathione; assay type: physicochemical; set-up: Rate constant with glutathione (k(GSH)): unit not given here; conditions: for Rate constant with glutathione (k(GSH)): 500 μM ligand, 5 μM thiol, phosphate buffer pH 8; for Rate constant with Glutathione: Protein: Glutathione, cysteine position NA, in h-1
# Outline: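 First, 5 μM glutathione in degassed phosphate buffer (pH 8) receives immobilized TCEP beads (2% v/v). Then acrylamide is added and plates incubate 1 h at room temperature. Finally, fluorescence (380/470 nm) is normalized and fitted to first-order decay for rate constants.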
# [2] = target: T1, human cyclin-dependent kinase 2 (Cdk2) (Homo sapiens, UniProt P24941); assay: Kinetic thiol consumption assay with wild type Cdk2 (C177); assay type: binding; set-up: key to Rate enhancement, Cdk2 WT: k(Cdk2) divided by k(model thiol); Rate constant with Cdk2 (k(Cdk2)): unit not given here; conditions: for Rate constant with Cdk2 (k(Cdk2)): 500 μM ligand, 5 μM thiol, phosphate buffer pH 8; for Rate enhancement, Cdk2 WT: no additional mutations; for Rate constant with Cdk2 WT: Protein: Cdk2, cysteine position WT, in h^-1; for k(Cdk2)/k(Cdk2_mut) rate enhancement: model thiol Cdk2[C177A, F80C, K278C]; for k(Cdk2)/k(GSH) rate enhancement: model thiol glutathione
# T1 construct: poly-histidine; made in house; host or cells: E. coli
# Outline: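 Rate constants came from first-order exponential decay fits of normalized fluorescence against time, with thiol (5 μM) in degassed pH 8 phosphate buffer containing 2% v/v TCEP beads and reads after 1 h at room temperature.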
# Cdk2[C177A, F80C, K278C] = target: T2, Cdk2[C177A, F80C, K278C] (Homo sapiens, UniProt P24941, C177A/F80C/K278C); assay: Kinetic thiol consumption assay with mutant Cdk2 as model thiol; assay type: binding; set-up: unit not given here; conditions: 500 μM ligand, 5 μM thiol, phosphate buffer pH 8
# T2 construct: poly-histidine; made in house; host or cells: E. coli
# Outline: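 Model thiol: His-tagged human Cdk2 C177A/F80C/K278C (two engineered surface cysteines), E. coli-expressed, 5 μM in degassed phosphate buffer pH 8 with immobilized TCEP beads (2% v/v). Fluorescence (ex/em 380/470 nm) followed over time at room temperature, normalized to DMSO/thiol control. First-order decay fit gives rate constants.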
# Cdk2(C177A, F80C) = target: T3, Cdk2(C177A, F80C) (Homo sapiens, UniProt P24941, C177A/F80C); assay: Kinetic thiol consumption assay with Cdk2 mutant F80C, incl. kobs versus concentration (Kd, k2); assay type: binding; set-up: key to Rate enhancement, Cdk2 F80C: Cdk2 rate constant divided by model-thiol rate constant; conditions: additional mutation C177A; for Rate constant with Cdk2 F80C: Protein: Cdk2, cysteine position F80C, in h^-1
# T3 construct: poly-histidine; made in house; host or cells: E. coli
# Outline: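 His-tagged Cdk2(C177A/F80C) from E. coli or model thiol, 5 μM in degassed phosphate buffer pH 8 with TCEP beads, reacted with acrylamide ligands; fluorescence (ex/em 380/470 nm) normalized to DMSO control and fitted to first-order decay for kobs. Kd and k2 obtained from hyperbolic fit of kobs versus ligand concentration.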
# Cdk2(H71C) (C177A) = target: T4, Cdk2(H71C) (C177A) (Homo sapiens, UniProt P24941, C177A/H71C); assay: Kinetic thiol consumption assay with Cdk2 mutant H71C; assay type: binding; set-up: key to Rate enhancement, Cdk2 H71C: rate constant with Cdk2 ÷ rate constant with model thiol (fold); conditions: additional mutation C177A; for Rate constant with Cdk2 H71C: Protein: Cdk2, cysteine position H71C, in h^-1
# T4 construct: poly-histidine; made in house; host or cells: E. coli
# Outline: (§1)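 His-tagged single-surface-cysteine Cdk2 mutants (C177A background) from E. coli, 5 μM in degassed phosphate buffer pH 8, pre-treated with immobilized TCEP beads. Fluorescence (ex/em 380/470 nm) read after 1 h at room temperature, normalized to DMSO/thiol-only control; first-order decay fits gave rate constants, divided by model-thiol rate for rate enhancement.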
# Cdk2(S276C) (C177A) = target: T5, Cdk2(S276C) (C177A) (Homo sapiens, UniProt P24941, C177A/S276C); assay: Kinetic thiol consumption assay with Cdk2 mutant S276C; assay type: binding; set-up: key to Rate enhancement, Cdk2 S276C: rate constant with Cdk2 ÷ rate constant with model thiol (fold); conditions: additional mutation C177A; for Rate constant with Cdk2 S276C: Protein: Cdk2, cysteine position S276C, in h^-1
# T5 construct: poly-histidine; made in house; host or cells: E. coli
# Outline: as §1
# Cdk2(N272C) (C177A) = target: T6, Cdk2(N272C) (C177A) (Homo sapiens, UniProt P24941, C177A/N272C); assay: Kinetic thiol consumption assay with Cdk2 mutant N272C; assay type: binding; set-up: key to Rate enhancement, Cdk2 N272: rate constant with Cdk2 ÷ rate constant with model thiol (fold); conditions: for Rate enhancement, Cdk2 N272: Cdk2 N272, additional mutation C177A; for Rate constant with Cdk2 N272C: Protein: Cdk2, cysteine position N272C, additional mutation C177A, in h^-1
# T6 construct: poly-histidine; made in house; host or cells: E. coli
# Outline: as §1
# Cdk2(T182C) (C177A) = target: T7, Cdk2(T182C) (C177A) (Homo sapiens, UniProt P24941, C177A/T182C); assay: Kinetic thiol consumption assay with Cdk2 mutant T182C; assay type: binding; set-up: key to Rate enhancement, Cdk2 T182C: rate constant with Cdk2 ÷ rate constant with model thiol (fold); conditions: additional mutation C177A; for Rate constant with Cdk2 T182C: Protein: Cdk2, cysteine position T182C, in h^-1
# T7 construct: poly-histidine; made in house; host or cells: E. coli
# Outline: as §1
# Cdk2(R122C) (C177A) = target: T8, Cdk2(R122C) (C177A) (Homo sapiens, UniProt P24941, C177A/R122C); assay: Kinetic thiol consumption assay with Cdk2 mutant R122C; assay type: binding; set-up: key to Rate enhancement, Cdk2 R122C: rate constant with Cdk2 ÷ rate constant with model thiol (fold); conditions: additional mutation C177A; for Rate constant with Cdk2 R122C: Protein: Cdk2, cysteine position R122C, in h-1
# T8 construct: poly-histidine; made in house; host or cells: E. coli
# Outline: as §1
# Cdk2(S181C) (C177A) = target: T9, Cdk2(S181C) (C177A) (Homo sapiens, UniProt P24941, C177A/S181C); assay: Kinetic thiol consumption assay with Cdk2 mutant S181C; assay type: binding; set-up: key to Rate enhancement, Cdk2 S181C: rate constant with Cdk2 ÷ rate constant with model thiol (fold); conditions: additional mutation C177A; for Rate constant with Cdk2 S181C: Protein: Cdk2, cysteine position S181C, in h^-1
# T9 construct: poly-histidine; made in house; host or cells: E. coli
# Outline: as §1
Compound,Rate constant with Cdk2 (k(Cdk2)) [2],"Rate enhancement, Cdk2 WT [2]",Rate constant with Cdk2 WT [2],k(Cdk2)/k(Cdk2_mut) rate enhancement [2],k(Cdk2)/k(GSH) rate enhancement [2],"Rate constant with Cdk2[C177A, F80C, K278C] (k(Cdk2_mut)) (Cdk2[C177A, F80C, K278C])","Rate enhancement, Cdk2 F80C (Cdk2(C177A, F80C))","Rate enhancement, Cdk2 H71C (Cdk2(H71C) (C177A))","Rate enhancement, Cdk2 S276C (Cdk2(S276C) (C177A))",Rate constant with Cdk2 S276C (Cdk2(S276C) (C177A)),"Rate enhancement, Cdk2 N272 (Cdk2(N272C) (C177A))",Rate constant with Cdk2 N272C (Cdk2(N272C) (C177A)),"Rate enhancement, Cdk2 T182C (Cdk2(T182C) (C177A))",Rate constant with Cdk2 T182C (Cdk2(T182C) (C177A)),"Rate enhancement, Cdk2 R122C (Cdk2(R122C) (C177A))",Rate constant with Cdk2 R122C (Cdk2(R122C) (C177A)),"Rate enhancement, Cdk2 S181C (Cdk2(S181C) (C177A))",Rate constant with Cdk2 S181C (Cdk2(S181C) (C177A)),Rate constant with glutathione (k(GSH)) [1],Rate constant with Glutathione [1],other results
C=CC(=O)NC(C)c1ccc2c(c1)OCO2 (stereo not drawn) [EL-1051],0.00298,0.6621,0.003025,0.8251,0.6464,0.00361,0.1378,0,1.226,0.005603,0.3701,0.001691,0.6691,0.003057,0.3414,0.00156,0.6373,0.002912,0.00461,0.004569,"Rate constant with Cdk2 F80C (Cdk2(C177A, F80C)): 0.0006296"
C=CC(=O)N1CCCCCC1c1cccs1 (stereo not drawn) [EL-1063],0.00274,0.8082,0.002743,0.5955,0.7775,0.00461,2.756,1.092,0.5613,0.001905,1.172,0.003977,9.081,0.03082,0.7319,0.002484,1.561,0.005297,0.00353,0.003394,"Rate constant with Cdk2 F80C (Cdk2(C177A, F80C)): 0.009353; Rate constant with Cdk2 H71C (Cdk2(H71C) (C177A)): 0.003705"
C=CC(=O)NCCc1c(-c2ccccn2)[nH]c2ccccc12 [EL-1083],0.00098,0.08945,0.0009768,0.3446,0.1583,0.00284,0,0,0.5044,0.005508,0.157,0.001714,0.9139,0.00998,0.05484,0.0005988,0.1531,0.001672,0.00618,0.01092,–

# The next lines start with results.
Rate constant with Cdk2 (k(Cdk2)) [2],"Rate enhancement, Cdk2 WT [2]",Rate constant with Cdk2 WT [2],k(Cdk2)/k(Cdk2_mut) rate enhancement [2],k(Cdk2)/k(GSH) rate enhancement [2],"Rate constant with Cdk2[C177A, F80C, K278C] (k(Cdk2_mut)) (Cdk2[C177A, F80C, K278C])","Rate enhancement, Cdk2 F80C (Cdk2(C177A, F80C))","Rate enhancement, Cdk2 H71C (Cdk2(H71C) (C177A))","Rate enhancement, Cdk2 S276C (Cdk2(S276C) (C177A))",Rate constant with Cdk2 S276C (Cdk2(S276C) (C177A)),"Rate enhancement, Cdk2 N272 (Cdk2(N272C) (C177A))",Rate constant with Cdk2 N272C (Cdk2(N272C) (C177A)),"Rate enhancement, Cdk2 T182C (Cdk2(T182C) (C177A))",Rate constant with Cdk2 T182C (Cdk2(T182C) (C177A)),"Rate enhancement, Cdk2 R122C (Cdk2(R122C) (C177A))",Rate constant with Cdk2 R122C (Cdk2(R122C) (C177A)),"Rate enhancement, Cdk2 S181C (Cdk2(S181C) (C177A))",Rate constant with Cdk2 S181C (Cdk2(S181C) (C177A)),Compound,Rate constant with glutathione (k(GSH)) [1],Rate constant with Glutathione [1],other results
0.00213,0.3281,0.002126,0.4738,0.3244,0.00449,0.1379,0.3667,0.7301,0.004731,0.325,0.002106,1.009,0.00654,0.3573,0.002315,0.9519,0.006168,C=CC(=O)N1CCCCCC1c1cccnc1 (stereo not drawn) [EL-1059],0.00656,0.00648,"Rate constant with Cdk2 F80C (Cdk2(C177A, F80C)): 0.0008934; Rate constant with Cdk2 H71C (Cdk2(H71C) (C177A)): 0.002376"
0.00448,1.245,0.006301,0.6762,0.8802,0.00663,1.223,0,0.2765,0.0014,0.3073,0.001556,5.254,0.0266,0.606,0.003068,1.564,0.007918,C=CC(=O)N1CCCC1c1ccc(OC)cc1 (stereo not drawn) [EL-1062],0.00509,0.005063,"Rate constant with Cdk2 F80C (Cdk2(C177A, F80C)): 0.006191"
0.00589,0.4929,0.00589,0.7691,0.489,0.00766,1.645,0.8653,1.074,0.01284,1.056,0.01262,1.7,0.02031,0.5786,0.006914,1.469,0.01756,C=CC(=O)N1CCCC1c1cnc2ccccc2c1 (stereo not drawn) [EL-1064],0.01205,0.01195,"Rate constant with Cdk2 F80C (Cdk2(C177A, F80C)): 0.01966; Rate constant with Cdk2 H71C (Cdk2(H71C) (C177A)): 0.01034"
0.003,0.5934,0.006082,0.8773,0.3421,0.00342,0.4555,0.248,0.4274,0.004381,0.6473,0.006635,1.829,0.01875,0.322,0.0033,0.214,0.002194,C=CC(=O)NC1C[C@@H](C(=C)C)CC=C1C (stereo partly drawn) [EL-1074],0.00876,0.01025,"Rate constant with Cdk2 F80C (Cdk2(C177A, F80C)): 0.004669; Rate constant with Cdk2 H71C (Cdk2(H71C) (C177A)): 0.002542"
